Active and inactive are the calls of the source.
Tests used:
[1] = inhibition of Env-driven cell fusion – HIV entry, plate reader, dry powder, dose response (AID 687023); assay type: functional, cell-based
[2] = blockers of HIV-1 ZM109 envelope-driven cell-cell fusion – HeLa effector, CEM target cells, luciferase, cherry-pick, dose response (AID 652058); assay type: functional, cell-based;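 further: luciferase signal from HIV-1 Env mediated cell-cell fusion of effector and target cells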
[3] = blockers of HIV-1 envelope-mediated cell-cell fusion – cherry-pick, dose response (AID 652057); assay type: functional, cell-based
[4] = HIV-1 AD8 envelope cell-cell fusion blockers – cherry-pick, dose response (AID 652062); assay type: functional, cell-based;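 further: luciferase signal from cell-cell fusion driven by HIV-1 clade B AD8 Env; potency is for inhibitors of fusion seen as a drop in luminescence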
[5] = molecular target: T1, NAD-dependent protein deacylase sirtuin-5, mitochondrial (Homo sapiens, UniProt Q9NXA8); assay: blockers of sirtuin-5 peptide desuccinylation – biochemical, fluorescence imaging, cherry-pick, set 6, dose response (AID 720597)
[6] = viability loss in MITF-independent A375 cells – cell-based, CellTiter-Glo luminescence, dry powder, set 2, counter-screen for MITF inhibitor project, dose response (AID 624489); assay type: functional; conditions: A-375;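 further: actives are compounds lowering A375 viability meaning general cytotoxicity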
[7] = cytotoxicity in MITF-independent A375 cells – cell-based, CellTiter-Glo luminescence, dry powder, set 4, counter-screen for MITF inhibitor project, dose response (AID 624364); assay type: functional; conditions: A-375;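 further: A375 melanoma cells are MITF independent so this is a counter screen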
[8] = molecular target: T1, NAD-dependent protein deacylase sirtuin-5, mitochondrial; assay: sirtuin-5 deacylation blockers, concentration series – biochemical, fluorescence imaging, cherry-pick, set 5, dose response (AID 720591);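 further: desuccinylation of succinyl peptide AMC substrate read as fluorescence after trypsin release; potency of inhibitors that lower fluorescence and may act on trypsin instead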
[9] = non-specific 3'UTR reporter inhibition in Clone20-Shn3RL – cell-based, Renilla luciferase, cherry-picked, counter-screen for Shn3 inhibitor project, dose response (AID 624133); assay type: functional
[10] = loss of viability in HepG2 cells – cell-based, CellTiter-Glo, cherry-picked, cytotoxicity control for Shn3 inhibitor project, dose response (AID 624134); assay type: functional
[11] = molecular target: Paired box protein Pax-8 (Homo sapiens, UniProt Q06710); assay: PAX8 transcriptional activity inhibition in RMG-I – RMG-I cells, luciferase, cherry-pick, dose response (AID 687027); assay type: functional, cell-based;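 further: luciferase reporter driven by Pax8 target thyroperoxidase promoter measured by SteadyGlo luminescence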
[12] = A549 cell cytotoxicity, dose response, cytotoxicity control, plate reader, cherry-pick, antagonist series (AID 743412); assay type: functional, cell-based
[13] = Shn3 transcript knock-down in Clone20 cells – cell-based, qPCR, cherry-pick, dose response (AID 743415); assay type: functional
[14] = viability loss in HEK293 cells – cell-based, plate reader, cherry-picked samples, cytotoxicity control, dose response (AID 743446); assay type: functional
[15] = blockade of melanocortin 4 receptor signaling – cell-based, plate reader, cherry pick, counter-screen for LGR2 antagonist project, dose response (AID 743444); assay type: functional;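 further: transfected HEK 293 cells stimulated with alpha-MSH peptide; potency of inhibitors of the alpha-MSH evoked signal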
[16] = EF1alpha-driven Renilla reporter with control 3'UTR suppression – Clone20-Shn3RL cells, dual-Glo, cherry-pick, set 2, counter-screen for Shn3 3'UTR targeting project, dose response (AID 720724); assay type: functional, cell-based; conditions: Dual-Go Shn3RL
[17] = Shn3 3'UTR reporter signal decrease – cell-based, Clone20 osteoblasts, firefly luciferase, cherry-pick, set 2, Schnurri-3 inhibitor project, dose response (AID 720490); assay type: functional;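 further: actives lower the luminescence signal as inhibitors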
[18] = toxicity toward HepG2 liver cells – cell-based, plate reader, cherry-pick, antagonist series, cytotoxicity control, dose response (AID 743416); assay type: functional
[19] = molecular target: Beta-2 adrenergic receptor (Homo sapiens, UniProt P07550); assay: ADRB2 activation measured by internalization – cell-based, FAP fluorogen, flow cytometry, cherry pick 1, dose response (AID 588763); assay type: functional
[20] = blockers of bursicon-stimulated LGR2 cAMP reporter – cell-based, HEK293, CRE-luciferase reporter, cherry pick, set 2, dose response (AID 743343); assay type: functional;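 further: transfected cells were stimulated with diluted bursicon conditioned medium after compound addition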
[21] = reduction of Shn3 3'UTR-driven luciferase in osteoblasts – cell-based, Clone20 osteoblasts, firefly luciferase, cherry-picked, dose response (AID 624132); assay type: functional;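 further: firefly luciferase luminescence from reporter carrying the Shn3 3'UTR in osteoblasts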
[22] = tested on: Streptococcus sp. 'group A'; assay: Streptococcus pyogenes SK(-)GAS viability under kanamycin – luminescence, BacTiterGlo, confirmation, counter-screen for streptokinase expression inhibitor project, dose response (AID 1900); assay type: functional, organism-based
[23] = tested on: Streptococcus; assay: GAS UMAA2166 growth inhibition – luminescence, BacTiterGlo, counter-screen for streptokinase expression inhibitor project, dose response (AID 1915); assay type: functional, organism-based;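 further: potency for reduction of bacterial viability or growth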
[24] = molecular target: T2, Methionyl-tRNA synthetase, putative (Trypanosoma brucei brucei, UniProt Q38C91); assay type: functional, Trypanosoma brucei brucei strain 927/4 GUTat10.1
T2 sequence (Q38C91 whole entry): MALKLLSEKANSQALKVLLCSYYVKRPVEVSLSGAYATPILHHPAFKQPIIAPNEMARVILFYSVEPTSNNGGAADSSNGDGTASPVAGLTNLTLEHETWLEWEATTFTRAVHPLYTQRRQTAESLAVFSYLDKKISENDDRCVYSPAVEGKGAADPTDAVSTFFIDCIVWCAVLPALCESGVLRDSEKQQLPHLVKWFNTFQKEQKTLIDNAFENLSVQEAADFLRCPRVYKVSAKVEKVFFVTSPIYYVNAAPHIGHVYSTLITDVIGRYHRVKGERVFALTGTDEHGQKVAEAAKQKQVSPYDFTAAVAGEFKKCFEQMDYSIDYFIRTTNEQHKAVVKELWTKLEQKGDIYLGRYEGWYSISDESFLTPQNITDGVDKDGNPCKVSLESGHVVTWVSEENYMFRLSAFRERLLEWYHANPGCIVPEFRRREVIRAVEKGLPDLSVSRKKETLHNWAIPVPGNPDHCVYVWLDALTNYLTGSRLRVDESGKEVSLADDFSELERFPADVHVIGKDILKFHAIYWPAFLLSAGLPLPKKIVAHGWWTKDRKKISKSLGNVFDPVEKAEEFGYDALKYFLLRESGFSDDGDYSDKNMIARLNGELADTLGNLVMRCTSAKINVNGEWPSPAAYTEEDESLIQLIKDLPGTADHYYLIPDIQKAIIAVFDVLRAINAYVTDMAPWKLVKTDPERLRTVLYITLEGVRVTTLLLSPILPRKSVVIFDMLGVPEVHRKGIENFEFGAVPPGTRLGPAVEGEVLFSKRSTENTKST

[25] = Luminescence Cell-Based Dose Retest to Confirm Inhibitors of Cancer Stem Cells. [Related pubchem assays (depositor defined):AID2717, AID2721]; assay type: functional; conditions: Homo sapiens
[26] = Counterscreen for inhibitors of Trypanosoma brucei methionyl tRNA synthetase (MetRS): Luminescence-based cell-based high throughput dose response assay to identify compounds that are cytotoxic to Jurkat human T lymphocyte cells.; assay type: functional
[27] = molecular target: T2, Methionyl-tRNA synthetase, putative; assay type: functional, Trypanosoma brucei brucei strain 927/4 GUTat10.1; remark: listed apart in the source
[28] = Late stage counterscreen for inhibitors of Trypanosoma brucei methionyl tRNA synthetase (MetRS): Luminescence-based cell-based high throughput dose response assay to identify compounds that are cytotoxic to Jurkat human T lymphocyte cells.; assay type: functional
[29] = molecular target: T3, Streptokinase A (Streptococcus pyogenes serotype M1, UniProt P10520); assay: viability-normalized secreted streptokinase activity reduction – plasminogen activation absorbance, OD405, dose response (AID 1914); assay type: functional, Streptococcus pyogenes M1 GAS;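 further: secreted streptokinase activity via plasminogen activation per viability signal from cell pellet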
T3 sequence (P10520 whole entry): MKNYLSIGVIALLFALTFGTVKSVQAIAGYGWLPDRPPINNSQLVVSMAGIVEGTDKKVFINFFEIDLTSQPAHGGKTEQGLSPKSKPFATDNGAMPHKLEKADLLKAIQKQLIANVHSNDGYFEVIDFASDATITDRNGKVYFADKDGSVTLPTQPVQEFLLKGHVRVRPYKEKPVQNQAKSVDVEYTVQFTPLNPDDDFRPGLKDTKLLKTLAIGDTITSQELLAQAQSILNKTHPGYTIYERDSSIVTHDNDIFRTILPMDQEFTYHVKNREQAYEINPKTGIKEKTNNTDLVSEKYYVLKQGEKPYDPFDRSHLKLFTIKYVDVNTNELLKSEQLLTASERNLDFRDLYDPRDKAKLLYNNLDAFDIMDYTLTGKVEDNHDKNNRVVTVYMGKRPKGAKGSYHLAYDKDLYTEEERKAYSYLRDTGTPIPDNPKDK

[30] = molecular target: Cytochrome P450 2D6 (Homo sapiens, UniProt P10635);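 further: CYP2D6 member of a cytochrome P450 panel assay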
[31] = molecular target: T4, Polyadenylate-binding protein 1 (Homo sapiens, UniProt P11940); assay: MLLE binding blockers, Cy5 peptide tracer – biochemical, fluorescence polarization, Cy5-PAM2 peptide, secondary, miRNA deadenylation inhibitor project, dose response (AID 602260); assay type: functional; conditions: read-out: IC50_Mean
[32] = molecular target: T5, Rac GTPase-activating protein 1 (Homo sapiens, UniProt Q9H0H5); assay: blockers of MgcRacGAP-driven Rac1 GTP hydrolysis – biochemical, ADP Hunter fluorescence, primary and confirmatory, confirmation (AID 624330); assay type: functional
T5 sequence (Q9H0H5 whole entry): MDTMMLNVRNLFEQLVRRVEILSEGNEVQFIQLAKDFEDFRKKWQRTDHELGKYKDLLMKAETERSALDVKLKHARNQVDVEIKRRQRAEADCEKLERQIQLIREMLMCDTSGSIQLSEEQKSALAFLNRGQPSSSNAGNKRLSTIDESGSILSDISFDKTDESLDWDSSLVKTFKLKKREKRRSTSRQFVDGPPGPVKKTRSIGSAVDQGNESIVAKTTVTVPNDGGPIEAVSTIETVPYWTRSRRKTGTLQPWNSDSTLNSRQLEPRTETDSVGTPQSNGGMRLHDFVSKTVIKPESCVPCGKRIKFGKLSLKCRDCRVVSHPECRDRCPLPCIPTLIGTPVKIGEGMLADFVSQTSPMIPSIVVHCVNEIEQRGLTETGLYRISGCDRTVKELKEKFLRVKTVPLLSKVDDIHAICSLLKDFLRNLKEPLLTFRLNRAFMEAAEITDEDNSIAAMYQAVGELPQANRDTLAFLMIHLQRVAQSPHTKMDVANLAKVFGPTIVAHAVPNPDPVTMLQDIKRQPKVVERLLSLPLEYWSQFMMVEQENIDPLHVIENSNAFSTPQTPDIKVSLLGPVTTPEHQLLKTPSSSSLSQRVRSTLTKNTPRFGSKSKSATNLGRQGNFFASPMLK

[33] = molecular target: T4, Polyadenylate-binding protein 1; assay: MLLE domain peptide-binding blockers, IC50 – biochemical, fluorescence polarization, FITC-PAM2 peptide, dose response (AID 602259); assay type: functional; conditions: read-out: IC50_Mean
[34] = IC50 of Artemis nuclease activity blockers – biochemical, fluorescence intensity, dose response (AID 720701); assay type: functional;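 further: Artemis endonuclease enzyme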
[35] = molecular target: Glutathione-S-transferase (Schistosoma japonicum, UniProt Q26513); assay: GST-antibody interaction or FRET quenching – biochemical, TR-FRET, artefact control for Vif-APOBEC3G degradation inhibitor project, dose response (AID 1117362); assay type: functional
[36] = molecular target: Induced myeloid leukemia cell differentiation protein Mcl-1 (Homo sapiens, UniProt Q07820); assay type: functional
Chain of Induced myeloid leukemia cell differentiation protein Mcl-1 (Q07820 whole entry): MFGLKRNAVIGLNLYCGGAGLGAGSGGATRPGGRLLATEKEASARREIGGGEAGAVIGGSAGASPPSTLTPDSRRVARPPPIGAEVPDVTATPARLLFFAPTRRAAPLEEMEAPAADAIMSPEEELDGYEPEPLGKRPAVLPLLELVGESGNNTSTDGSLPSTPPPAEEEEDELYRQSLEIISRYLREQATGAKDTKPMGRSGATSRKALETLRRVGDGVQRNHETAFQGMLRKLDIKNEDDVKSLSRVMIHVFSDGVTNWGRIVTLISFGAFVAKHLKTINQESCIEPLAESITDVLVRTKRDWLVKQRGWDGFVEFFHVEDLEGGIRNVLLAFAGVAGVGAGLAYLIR

T1 sequence (Q9NXA8 whole entry): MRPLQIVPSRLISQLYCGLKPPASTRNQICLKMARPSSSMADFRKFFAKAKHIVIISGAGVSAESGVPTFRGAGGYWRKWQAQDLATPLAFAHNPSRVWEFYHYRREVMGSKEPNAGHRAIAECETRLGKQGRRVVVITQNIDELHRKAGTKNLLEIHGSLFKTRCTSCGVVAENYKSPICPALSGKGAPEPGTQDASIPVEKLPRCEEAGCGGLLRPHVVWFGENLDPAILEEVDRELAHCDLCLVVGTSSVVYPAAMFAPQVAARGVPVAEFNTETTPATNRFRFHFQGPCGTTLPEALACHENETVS
T4 sequence (P11940 whole entry): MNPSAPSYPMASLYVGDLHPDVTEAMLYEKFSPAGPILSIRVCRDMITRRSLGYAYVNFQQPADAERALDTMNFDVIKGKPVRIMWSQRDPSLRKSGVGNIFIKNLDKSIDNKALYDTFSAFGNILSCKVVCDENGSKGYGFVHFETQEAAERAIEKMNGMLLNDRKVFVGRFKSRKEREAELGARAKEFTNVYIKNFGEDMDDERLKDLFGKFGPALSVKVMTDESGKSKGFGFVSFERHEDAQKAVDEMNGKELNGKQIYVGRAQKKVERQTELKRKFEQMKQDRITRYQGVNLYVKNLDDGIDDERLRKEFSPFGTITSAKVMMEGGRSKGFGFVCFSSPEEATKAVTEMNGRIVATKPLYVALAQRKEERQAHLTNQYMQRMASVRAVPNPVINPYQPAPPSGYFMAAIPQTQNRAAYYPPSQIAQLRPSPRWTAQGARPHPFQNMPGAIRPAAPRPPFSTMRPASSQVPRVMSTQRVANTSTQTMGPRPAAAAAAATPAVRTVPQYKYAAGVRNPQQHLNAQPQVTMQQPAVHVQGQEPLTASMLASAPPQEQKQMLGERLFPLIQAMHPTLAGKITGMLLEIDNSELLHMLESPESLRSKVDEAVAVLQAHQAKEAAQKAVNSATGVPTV
Chain of Beta-2 adrenergic receptor (P07550 whole entry): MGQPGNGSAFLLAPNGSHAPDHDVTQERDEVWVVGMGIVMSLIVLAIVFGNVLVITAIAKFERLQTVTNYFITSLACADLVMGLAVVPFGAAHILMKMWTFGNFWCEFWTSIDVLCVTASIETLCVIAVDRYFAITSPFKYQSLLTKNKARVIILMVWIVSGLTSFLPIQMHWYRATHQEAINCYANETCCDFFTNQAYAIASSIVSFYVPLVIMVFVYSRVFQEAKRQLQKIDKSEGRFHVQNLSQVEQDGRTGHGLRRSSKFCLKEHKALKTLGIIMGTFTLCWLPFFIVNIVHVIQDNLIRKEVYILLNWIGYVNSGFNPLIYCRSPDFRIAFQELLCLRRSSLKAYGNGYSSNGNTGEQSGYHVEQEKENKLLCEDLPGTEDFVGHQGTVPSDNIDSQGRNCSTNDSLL
Chain of Paired box protein Pax-8 (Q06710 whole entry): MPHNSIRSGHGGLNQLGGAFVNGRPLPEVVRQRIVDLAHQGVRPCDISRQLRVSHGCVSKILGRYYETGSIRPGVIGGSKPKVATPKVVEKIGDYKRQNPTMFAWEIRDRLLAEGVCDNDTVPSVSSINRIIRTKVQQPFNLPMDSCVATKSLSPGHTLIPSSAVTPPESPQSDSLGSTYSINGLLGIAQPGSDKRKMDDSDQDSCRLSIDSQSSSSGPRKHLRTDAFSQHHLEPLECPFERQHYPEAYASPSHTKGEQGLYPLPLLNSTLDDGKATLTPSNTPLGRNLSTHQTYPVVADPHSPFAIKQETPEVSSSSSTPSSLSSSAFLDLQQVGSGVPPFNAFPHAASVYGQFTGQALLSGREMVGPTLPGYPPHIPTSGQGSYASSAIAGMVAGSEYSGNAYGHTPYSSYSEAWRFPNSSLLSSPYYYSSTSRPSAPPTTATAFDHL
Chain of Cytochrome P450 2D6 (P10635 whole entry): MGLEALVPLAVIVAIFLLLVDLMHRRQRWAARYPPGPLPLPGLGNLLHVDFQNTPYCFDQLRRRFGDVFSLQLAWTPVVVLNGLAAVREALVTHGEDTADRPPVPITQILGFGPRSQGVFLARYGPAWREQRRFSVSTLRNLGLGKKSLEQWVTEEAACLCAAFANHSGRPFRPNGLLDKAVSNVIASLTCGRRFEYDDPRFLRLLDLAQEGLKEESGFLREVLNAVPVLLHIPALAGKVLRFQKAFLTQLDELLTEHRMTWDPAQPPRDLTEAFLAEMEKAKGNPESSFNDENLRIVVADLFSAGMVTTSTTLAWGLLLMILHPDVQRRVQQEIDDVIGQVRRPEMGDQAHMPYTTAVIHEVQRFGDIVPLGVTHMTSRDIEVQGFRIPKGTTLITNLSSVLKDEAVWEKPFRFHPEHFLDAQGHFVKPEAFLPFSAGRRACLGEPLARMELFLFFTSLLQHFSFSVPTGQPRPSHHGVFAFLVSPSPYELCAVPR
Chain of Glutathione-S-transferase (Q26513 whole entry): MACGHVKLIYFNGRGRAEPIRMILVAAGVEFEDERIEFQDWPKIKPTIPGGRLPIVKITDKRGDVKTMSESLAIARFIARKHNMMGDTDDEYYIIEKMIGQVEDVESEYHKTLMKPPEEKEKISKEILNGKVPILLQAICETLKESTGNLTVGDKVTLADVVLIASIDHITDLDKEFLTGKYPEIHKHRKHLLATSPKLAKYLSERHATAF

Cn1c(C(=O)N2CCN(c3nc4ccccc4s3)CC2)cc2sccc21
AC50 [1]: 8.02 µM (active)
AC50 [2]: 4.97 µM (active)
AC50 [3]: 3.01 µM (active)
AC50 [4]: 16.4 µM (active)

O=C(O)CCNc1ncnc2ccccc12
AC50 [5]: > 30 µM (inactive)

C=C1C(=O)OC2C1CC/C(C)=C\CCC1(C)OC21 (stereo unspecified)
AC50 [6]: 43.9 µM (active)
AC50 [7]: > 70 µM (inactive)

CC(C)C[C@H](NS(=O)(=O)c1ccc(F)cc1F)C(=O)N1CCC[C@H]1C(=O)NCc1ccccc1
AC50 [8]: 15.3 µM (active)

Cn1nnnc1Sc1ncnc2scc(-c3ccc(Br)cc3)c12
AC50 [9]: 14.4 µM (active)
AC50 [10]: 19.2 µM (active)
AC50 [11]: 3.56 µM (active)
AC50 [12]: 6.82 µM (active)
AC50 [13]: 17.6 µM (active)
AC50 [14]: 11.2 µM (active)
AC50 [15]: 15.6 µM (active)
AC50 [16]: 5.09 µM (active)
AC50 [17]: 5.82 µM (active)
AC50 [18]: 7.97 µM (active)
EC50 [19]: 8.44 µM (active)
AC50 [20]: 8.94 µM (active)
AC50 [21]: 0.334 µM (active)

O=C(NNC(=O)c1cc(-c2ccc(Cl)c(Cl)c2)nc2ccccc12)Nc1ccccc1
EC50 [22]: 4.69 µM (active)
EC50 [23]: 13.7 µM (active)
IC50 [24]: 1.64 µM (active)
AC50 [25]: 4.94 µM (active)
IC50 [26]: 34.2 µM (inactive)
IC50 [27]: 3.12 µM (active)
IC50 [28]: 22.4 µM (inactive)
EC50 [29]: > 150 µM (not active)
AC50 [30]: 20 µM (inconclusive)

COc1ccc2c3c(cccc13)N(C)N=C2C
IC50 [31]: > 66 µM (inactive)
IC50 [32]: 34.4 µM (active)
IC50 [33]: > 66 µM (inactive)
IC50 [34]: > 20 µM (inactive)
IC50 [35]: 36.6 µM (active)
IC50 [36]: 1.33 µM (active)
